Counter-ions that a name gives are not always drawn.
What was measured:
[1] = system: Caenorhabditis elegans N2; assay: lowest effective concentration for larval growth inhibition (size below effect threshold); higher = less potent; settings: exposure time 48 h
Outline: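 Worm size was taken as per-worm extinction on the Biosort, log-transformed and turned into well means. The larvae (C. elegans N2, L1 stage, 50 per 96-well) had spent 48 h at 20°C in K-medium with killed bacteria, 1% DMSO and 0.5, 1, 5, 10, 50, 100 or 200 µM chemical. The lowest effective concentration marks the first dose where the plate-adjusted mean size drops under a cutoff and remains under it at every higher dose; the cutoff is 5.665.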

[2] = system: Caenorhabditis elegans N2; assay: mean nematode size ln(EXT) after 48 h, plate-adjusted (DMSO control set to 6) (ln(EXT), control-adjusted); higher = larger nematodes / less growth inhibition; settings: exposure time 48 h
Outline: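 Each treatment used 4–6 wells of 50 synchronised C. elegans N2 L1 larvae, kept for 48 h at 20°C in K-medium with killed OP50, 1% DMSO and 0.5–200 µM chemical. Debris was excluded by a growth model after the Biosort measured per-worm extinction. Mean size per well came from natural-logged values and was plate-adjusted. That adjustment subtracted the vehicle control mean and then added 6.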

SMILES | lowest effective concentration [1] [µM] | mean nematode size ln(EXT) (ln) ([2]; 0.5 µM) | mean nematode size ln(EXT) (ln) ([2]; 1 µM) | mean nematode size ln(EXT) (ln) ([2]; 5 µM) | mean nematode size ln(EXT) (ln) ([2]; 10 µM) | mean nematode size ln(EXT) (ln) ([2]; 50 µM) | mean nematode size ln(EXT) (ln) ([2]; 100 µM) | mean nematode size ln(EXT) (ln) ([2]; 200 µM)
CN(C)C(=S)S [Sodium dimethyldithiocarbamate] | > 200 | 5.93 | 5.79 | 5.88 | 5.82 | 5.85 | 5.81 | 5.69
O=C1O[C@H]([C@H](O)CO)C([O-])=C1O.[Na+] [Sodium erythorbate] | > 200 | 5.96 | 5.89 | 5.94 | 5.98 | 6 | 5.9 | 5.68
O=NO [Sodium nitrite] | > 200 | 6 | 6.02 | 6.05 | 6.03 | 6.08 | 6.04 | 5.75
O=[N+]([O-])c1ccc(O)cc1 [Sodium p-nitrophenolate] | > 200 | 5.95 | 5.97 | 5.92 | 5.98 | 6.15 | 5.81 | 5.87
Cc1ccc(S(=O)(=O)O)cc1C [Sodium xylenesulfonate] | > 200 | 5.89 | 5.95 | 5.92 | 5.82 | 5.89 | 5.8 | 5.72
C/C=C/C=C/C(=O)O [Sorbic acid] | > 200 | 5.84 | 5.83 | 5.82 | 5.95 | 5.89 | 5.86 | 5.7
Cc1cn([C@H]2C=C[C@@H](CO)O2)c(=O)[nH]c1=O [Stavudine] | > 200 | 5.47 | 5.53 | 5.6 | 5.67 | 5.69 | 5.7 | 5.93
CCCCCCCCCCCCCCCCCC(=O)O [Stearic acid] | > 200 | 6.02 | 5.96 | 6.03 | 5.96 | 5.87 | 5.85 | 5.91
c1ccc(C2CO2)cc1 (stereo not given) [Styrene oxide] | > 200 | 6.05 | 6.04 | 6.03 | 6.01 | 6.03 | 6.03 | 5.89
CC(=O)OC[C@H]1O[C@@](COC(C)=O)(O[C@H]2O[C@H](COC(C)=O)[C@@H](OC(C)=O)[C@H](OC(C)=O)[C@H]2OC(C)=O)[C@@H](OC(C)=O)[C@@H]1OC(C)=O [Sucrose octaacetate] | > 200 | 5.78 | 5.75 | 5.76 | 5.75 | 5.72 | 5.75 | 5.73
OC[C@H]1O[C@@](CO)(O[C@H]2O[C@H](CO)[C@@H](O)[C@H](O)[C@H]2O)[C@@H](O)[C@@H]1O [Sucrose] | > 200 | 6.01 | 5.97 | 6.04 | 5.98 | 5.84 | 5.87 | 5.82
Oc1ccc2ccccc2c1N=Nc1ccccc1 [Sudan I] | > 200 | 5.91 | 5.88 | 5.87 | 5.83 | 5.7 | 5.77 | 5.68
O=C(O)c1cc(/N=N/c2ccc(S(=O)(=O)Nc3ccccn3)cc2)ccc1O [Sulfasalazine] | > 200 | 5.85 | 5.91 | 5.87 | 5.87 | 5.92 | 5.9 | 5.94
O=c1n(Cl)c(=O)n(Cl)c(=O)n1Cl [Symclosene] | > 200 | 5.9 | 5.76 | 5.62 | 5.82 | 5.73 | 5.69 | 5.74
O=C(O)C1=NN(c2ccc(S(=O)(=O)O)cc2)C(=O)C1N=Nc1ccc(S(=O)(=O)O)cc1 (stereo not given) [Tartrazine] | > 200 | 6.02 | 5.96 | 5.97 | 5.98 | 6.03 | 5.85 | 5.92
O=C1CCC(N2C(=O)c3ccccc3C2=O)C(=O)N1 (stereo not given) [Thalidomide] | > 200 | 5.98 | 5.95 | 5.98 | 5.97 | 5.97 | 5.85 | 5.97
Cn1cnc2c1c(=O)[nH]c(=O)n2C [Theobromine] | > 200 | 5.83 | 5.87 | 5.98 | 6.03 | 5.87 | 5.86 | 5.83
N#C/N=C1\SCCN1Cc1ccc(Cl)nc1 [Thiacloprid] | > 200 | 5.99 | 5.88 | 5.94 | 5.96 | 5.96 | 5.89 | 5.81
CN1COCN(Cc2cnc(Cl)s2)/C1=N\[N+](=O)[O-] [Thiamethoxam] | > 200 | 5.81 | 5.7 | 5.73 | 5.88 | 5.8 | 5.88 | 5.91
Cc1ccc(C(C)C)c(O)c1 [Thymol] | > 200 | 5.92 | 5.82 | 5.66 | 5.65 | 5.67 | 5.51 | 5.72

SMILES | lowest effective concentration [1] [µM] | mean nematode size ln(EXT) (ln) ([2]; 0.5 µM) | mean nematode size ln(EXT) (ln) ([2]; 1 µM) | mean nematode size ln(EXT) (ln) ([2]; 5 µM) | mean nematode size ln(EXT) (ln) ([2]; 10 µM) | mean nematode size ln(EXT) (ln) ([2]; 50 µM) | mean nematode size ln(EXT) (ln) ([2]; 100 µM) | mean nematode size ln(EXT) (ln) ([2]; 200 µM)
Cc1ccc(S(=O)(=O)NC(=O)NN2CCCCCC2)cc1 [Tolazamide] | > 200 | 5.93 | 5.92 | 5.93 | 5.91 | 5.61 | 5.87 | 5.79
Cc1ccc(N=C=O)cc1N=C=O [Toluene-2,4-diisocyanate] | > 200 | 5.73 | 5.8 | 5.73 | 5.78 | 5.7 | 5.61 | 5.67
CCCCC(CC)C(=O)OCCOCCOCCOC(=O)C(CC)CCCC (stereo not given) [Tri(ethylene glycol) bis(2-ethylhexanoate)] | > 200 | 5.84 | 5.86 | 6 | 5.97 | 5.86 | 5.84 | 5.79
CC(=O)OCC(COC(C)=O)OC(C)=O [Triacetin] | > 200 | 5.85 | 5.99 | 5.89 | 5.85 | 5.97 | 5.78 | 5.73
C[C@]12C=CC(=O)C=C1CC[C@H]1[C@@H]3C[C@@H](O)[C@](O)(C(=O)CO)[C@@]3(C)C[C@H](O)[C@@]12F [Triamcinolone] | > 200 | 5.9 | 5.86 | 5.87 | 5.87 | 5.92 | 5.86 | 5.79
CCCCN(CCCC)CCCC [Tributylamine] | > 200 | 5.91 | 6 | 5.98 | 6.1 | 5.96 | 5.92 | 5.8
O=C(O)C(Cl)(Cl)Cl [Trichloroacetic acid] | > 200 | 5.84 | 5.85 | 5.86 | 5.91 | 5.89 | 5.91 | 5.67
OCCN(CCO)CCO [Triethanolamine] | > 200 | 5.65 | 5.64 | 5.71 | 5.66 | 5.09 | 5.38 | 5.69
CCOC(=O)CC(O)(CC(=O)OCC)C(=O)OCC [Triethyl citrate] | > 200 | 6.01 | 5.99 | 6.04 | 6.03 | 6.03 | 6.08 | 5.71
CC(=O)OCCOCCOCCOC(C)=O [Triethylene Glycol Diacetate] | > 200 | 5.82 | 5.87 | 5.88 | 5.91 | 5.83 | 5.96 | 5.82
OCCOCCOCCO [Triethylene glycol] | > 200 | 5.84 | 5.84 | 5.95 | 5.98 | 5.88 | 5.87 | 5.84
CC(C)CCCCCCOC(=O)c1ccc(C(=O)OCCCCCCC(C)C)c(C(=O)OCCCCCCC(C)C)c1 [Triisononyl Trimellitate] | > 200 | 5.94 | 5.89 | 5.94 | 5.86 | 5.81 | 5.73 | 5.68
c1ccc(OP(Oc2ccccc2)Oc2ccccc2)cc1 [Triphenyl phosphite] | > 200 | 5.86 | 5.75 | 5.77 | 5.81 | 5.75 | 5.95 | 5.72
COCC(C)OCC(C)OCC(C)O (stereo not given) [Tripropylene glycol monomethyl ether] | > 200 | 5.71 | 6.01 | 5.88 | 5.89 | 5.91 | 5.9 | 5.72
O=P(OCCCl)(OCCCl)OCCCl [Tris(2-chloroethyl) phosphate] | > 200 | 5.87 | 5.82 | 5.89 | 5.86 | 5.86 | 5.87 | 5.77
CCCCC(CC)COP(=O)(OCC(CC)CCCC)OCC(CC)CCCC (stereo not given) [Tris(2-ethylhexyl) phosphate] | > 200 | 5.94 | 5.99 | 5.94 | 5.96 | 5.92 | 5.34 | 5.78
O=[N+]([O-])C(CO)(CO)CO [Tris(hydroxymethyl)nitromethane] | > 200 | 5.91 | 5.9 | 5.92 | 5.75 | 5.92 | 5.89 | 5.75
NC(N)=O [Urea] | > 200 | 5.83 | 5.73 | 5.79 | 5.7 | 5.77 | 5.86 | 5.74
CCOC(N)=O [Urethane (ethyl carbamate)] | > 200 | 5.96 | 5.93 | 5.97 | 6 | 5.95 | 5.91 | 5.97
CCCC(CCC)C(=O)O [Valproic Acid] | > 200 | 5.81 | 5.92 | 6.12 | 6.03 | 6.06 | 6.03 | 5.91
